Target: Indoleamine 2,3-dioxygenase 1 (Homo sapiens, UniProt P14902)
Experiment: Enzyme Inhibition Assay
Details: pH 6.5; 37 °C
Experimental: The IC50 inhibition assays were performed in a 96-well microtiter plate format using purified recombinant IDO, which was added to the substrate, L-tryptophan (L-Trp), and the inhibitor. After the reaction, the product N-formylkynurenine was converted to kynurenine. The yellow color generated from reaction with kynurenine was measured at 490 nm using a microtiter plate reader. The data were analyzed using Graph Pad Prism 4 software (Graph Pad Software Inc.).

Sequence of Indoleamine 2,3-dioxygenase 1 (P14902 whole entry): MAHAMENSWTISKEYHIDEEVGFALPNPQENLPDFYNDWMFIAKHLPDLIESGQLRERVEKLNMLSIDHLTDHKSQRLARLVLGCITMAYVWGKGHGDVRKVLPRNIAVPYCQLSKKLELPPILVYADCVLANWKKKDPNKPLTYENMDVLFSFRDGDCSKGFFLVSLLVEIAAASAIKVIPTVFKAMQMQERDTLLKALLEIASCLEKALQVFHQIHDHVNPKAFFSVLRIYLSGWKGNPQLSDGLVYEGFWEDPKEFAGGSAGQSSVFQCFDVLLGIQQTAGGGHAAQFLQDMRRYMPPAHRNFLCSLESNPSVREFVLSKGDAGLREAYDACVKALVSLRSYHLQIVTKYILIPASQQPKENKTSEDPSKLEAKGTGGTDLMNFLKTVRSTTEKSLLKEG

Row | IC50 [µM] | Compound
1 | 675 | O=C1CC(=O)c2ccccc2C1=O
2 | 1.1 | CC1=CC(=O)c2ccccc2C1=O [Vitamin K3]

From BindingDB's records for doi:10.1021/jm7014155 (Bryn Mawr College, 2008)
